# Experiments:
# actinic keratoses = experiment: Randomized vehicle-controlled photodynamic therapy study, ALA with LDPE occlusion and blue light; type: in vivo, human
# Text: The actinic keratoses were present on the upper extremities, more specifically, on the dorsal surface of the hands and/or the forearm area between the elbow and the base of the fingers. Subjects ranged from 45 to 90 years of age (mean 68 years) and 90% had Fitzpatrick Skin Type I, II or III. Subjects were randomized to treatment in a 1:1 ratio. ALA was applied to lesions on the dorsal surface of one hand or the forearm for each subject, and the dorsal surface of the hand or the forearm was then occluded with low density polyethylene barrier for three hours. Following removal of the low density polyethylene barrier, a 10 J/cm^2 dose of blue light was delivered at 10 mW/cm^2, with treatment repeated after 8 weeks if any lesion(s) remained in the treatment area.
# The recurrence rate corresponds to the percentage of subjects with at least one recurrent lesion during the 12 month follow up period following the evaluation at twelve weeks who had previously achieved complete clearance at twelve weeks following treatment.
# Solubility in water = type: physicochemical
# clinical [1] = conditions: both, human, plasma
# Experimental: (§1) Two open-label, pharmacokinetic studies were carried out to evaluate the potential for systemic exposure of ALA and ALA and protoporphyrin IX (PpIX) when applied topically under occlusion, in a maximal use setting in patients with multiple actinic keratoses (AK) lesions on the upper extremities. In accordance with at least one embodiment, a 20% w/w topical composition of 5-aminolevulinic acid (ALA) was directly applied topically via an applicator to the upper extremities of the patients followed by covering with an occlusive, polyethylene film for a 3 hour incubation period. Light treatment was administered after the incubation period. Each subject received 10 J/cm^2 of visible blue light delivered at 10 mW/cm^2.
# (§2) In the first of the two studies, a total of 29 participants were enrolled. The participants were males and non-pregnant females, aged 18 years or older. […] The subjects received one treatment and were followed until week four after treatment. The treatment area, designated at baseline for the duration of the study, was the extensor surface of both distal upper extremities, as defined in the protocol (i.e., the dorsal hands/forearms). In the second of the two studies, a total of 14 participants were enrolled. Males and non-pregnant females, aged 18 years or older, with at least six Grade 1 or Grade 2 AK lesions on one upper extremity treatment area and at least 12 Grade 1 or Grade 2 AK lesions on the other upper extremity treatment area, were eligible for the study.
# (§3) The term “Cmax,” as used herein refers to maximum observed plasma concentrations based on actual values measured following study medication application.
# clinical [2] = conditions: both, human, plasma, topical or ocular, 354 mg
# Experimental: as §1, §2
# [3] = Open-label maximal use pharmacokinetic study, topical ALA under occlusion (first study)
# Experimental: as §1, §2, §3
# [4] = Open-label maximal use pharmacokinetic study, topical ALA under occlusion (another experiment)
# Experimental: as §1, §2
# [5] = following a baseline correction
# [6] = topical, 3 hour occlusion, not baseline corrected
compound,measurement,setting,value
"Cl.NCC(=O)CCC(=O)O [ALA, 5-amino-4-oxopentanoic acid hydrochloride]",complete clearance (subjects with resolution of the actinic keratoses),"actinic keratoses; twelve weeks after initial treatment, 3 h LDPE occlusion, 10 J/cm^2 blue light, 42 out of 135 subjects",31%
same,recurrence rate,actinic keratoses; twelve-month follow-up of subjects with complete clearance at twelve weeks,58%
same,solubility in water,Solubility in water,highly soluble
same,AUC(0-t),clinical [1]; topical,282 ng·h/mL
same,AUC(0-t),clinical [1]; topical or ocular,577 ng·h/mL
same,Cmax,"clinical [1]; topical or ocular, 354 mg",< 110 ng/mL
same,bioavailability,clinical [2],~1%
same,ALA geometric mean maximum plasma concentration,[3]; [5],80 ng/mL
same,time of maximum plasma concentration (median),[3]; [5],2 h
same,geometric mean maximum plasma concentration,[3]; [6],about 98 ng/mL
same,time of maximum plasma concentration (median),[3]; [6],2 h
same,ALA geometric mean maximum plasma concentration,[4]; [5],39 ng/mL
same,time of maximum plasma concentration (median),[4]; [5],2 h
same,time of maximum plasma concentration (median),[4]; not baseline corrected,2 h
same,geometric mean maximum plasma concentration,"[4]; topical, not baseline corrected",about 61 ng/ml
